The record followed here is ChEMBL document CHEMBL1275314, “Synthesis and biological evaluation of some 1,3,4-oxadiazole derivatives” (Eur J Med Chem, 2010).

One may read the MIC as the lowest concentration that inhibits growth of the organism. Higher therefore signals a less susceptible organism. The inhibition in vivo is the share of the control response that was lost under treatment.

Molecules are shown by their SMILES. ≈ marks a conversion by molar mass, not a printed value.

Holding throughout (format): functional
One assay relates to Pseudomonas aeruginosa. As to the kind of experiment: Antibacterial activity against Pseudomonas aeruginosa ATCC 27853 after 3 to 4 days by serial plate dilution method.
Another assay has as its system Klebsiella pneumoniae. As to the kind of experiment: Antibacterial activity against Klebsiella pneumoniae after 3 to 4 days by serial plate dilution method.
The test system of another assay is Aspergillus flavus. Put plainly: Antifungal activity against Aspergillus flavus NCIM 524 after 3 to 4 days by serial plate dilution method.
A further assay has as its system Aspergillus fumigatus. Put plainly: Antifungal activity against Aspergillus fumigatus NCIM 902 after 3 to 4 days by serial plate dilution method.
A further assay relates to Talaromyces marneffei. Put plainly: Antifungal activity against Penicillium marneffei after 3 to 4 days by serial plate dilution method.
The test system of assay [1] is Trichophyton mentagrophytes. As to the kind of experiment: Antifungal activity against Trichophyton mentagrophytes after 3 to 4 days by serial plate dilution method.
The test system of another assay is Rattus norvegicus. Put plainly: Antiinflammatory activity in Wister albino rat assessed as inhibition of carrageenan-induced paw edema at 10 mg/kg, po administered 30 mins before carrageenan treatment measured after 3 hrs by plethysmometric analysis. (In general: In the carrageenan paw model, swelling and tenderness develop within hours.)
The test system of assay [2] is Mus musculus. As to the kind of experiment: Analgesic activity in Swiss albino mouse assessed as inhibition of heat-induced paw licking or jumping behavior at 10 mg/kg, po administered after 15 sec of heat challenge measured after 30 mins post dose by Eddy's hot plate method. Particulars: 0.5 h. A general note: Hot-plate and tail-flick tests time the reaction to a heat stimulus.

The subject of assay [3] is Mus musculus. As to the kind of experiment: Analgesic activity in Swiss albino mouse assessed as inhibition of heat-induced paw licking or jumping behavior at 10 mg/kg, po administered after 15 sec of heat challenge measured after 60 mins post dose by Eddy's hot plate method. Particulars: 1 h.
Assay [4] relates to Mus musculus. As to the kind of experiment: Analgesic activity in Swiss albino mouse assessed as inhibition of heat-induced paw licking or jumping behavior at 10 mg/kg, po administered after 15 sec of heat challenge measured after 90 mins post dose by Eddy's hot plate method. Particulars: 1.5 h.
For another assay, the system named is Escherichia coli. As to the kind of experiment: Antibacterial activity against Escherichia coli ATCC 25922 after 3 to 4 days by serial plate dilution method.
A further assay relates to Staphylococcus aureus. As to the kind of experiment: Antibacterial activity against Staphylococcus aureus ATCC 25923 after 3 to 4 days by serial plate dilution method.

As for `CC(C)Cc1ccc(C(C)c2nn(CN3CCN(c4ccc(Cl)cc4)CC3)c(=S)o2)cc1` (stereo unspecified), the MIC (in the assay with Pseudomonas aeruginosa; in the assay with Klebsiella pneumoniae; in the assay with Aspergillus flavus; with Aspergillus fumigatus; in the assay with Talaromyces marneffei; in assay [1]) was 12.5 mg/L (≈ 26.5 µM) throughout. Moreover, the minimal inhibitory concentration (MIC) with Escherichia coli and against Staphylococcus aureus was 12.5 mg/L (≈ 26.5 µM) in each case. The inhibition in vivo at 10 mg/kg with Rattus norvegicus is 76.6%; in the assay on Mus musculus [2], 22.8%; with Mus musculus [3], 28%; in the assay with Mus musculus [4] it was 35.8%.
Regarding `CC(C)Cc1ccc(C(C)c2nn(CN3CCN(c4ccc([N+](=O)[O-])cc4)CC3)c(=S)o2)cc1` (stereo unspecified), the minimum inhibitory concentration (MIC) in the assay with Pseudomonas aeruginosa worked out at 12.5 mg/L (≈ 26 µM); with Klebsiella pneumoniae, 12.5 mg/L (≈ 26 µM); with Aspergillus flavus, 25 mg/L (≈ 51.9 µM); against Aspergillus fumigatus it was 25 mg/L (≈ 51.9 µM); in the assay with Talaromyces marneffei it was 25 mg/L (≈ 51.9 µM); in assay [1], 25 mg/L (≈ 51.9 µM). Besides, the MIC in the assay with Escherichia coli and against Staphylococcus aureus was 12.5 mg/L (≈ 26 µM) each time. In addition, the inhibition in vivo at 10 mg/kg in the assay with Rattus norvegicus turned out to be 75.1%; with Mus musculus [2], 30.6%; in the assay on Mus musculus [3], 36.2%; in the assay on Mus musculus [4], 44.8%.
For `CSc1ccc(Cc2nn(CN3CCN(c4cccc(Cl)c4)CC3)c(=S)o2)cc1`, the MIC (against Pseudomonas aeruginosa; in the assay with Klebsiella pneumoniae; in the assay on Aspergillus flavus; against Aspergillus fumigatus; in the assay on Talaromyces marneffei; in [1]) was 12.5 mg/L (≈ 28 µM) throughout. Further, the minimal inhibitory concentration (MIC) against Escherichia coli and against Staphylococcus aureus was 12.5 mg/L (≈ 28 µM) in each case. The inhibition in vivo at 10 mg/kg in the assay on Rattus norvegicus was 74.7%; in the assay with Mus musculus [2] it was 25.6%; in the assay on Mus musculus [3], 32%; with Mus musculus [4], 41.2%.
Turning to `COc1ccc(N2CCN(Cn3nc(Cc4ccc(SC)cc4)oc3=S)CC2)cc1`, the MIC (in the assay with Pseudomonas aeruginosa; against Klebsiella pneumoniae; with Aspergillus flavus; against Aspergillus fumigatus; against Talaromyces marneffei; in assay [1]) was 12.5 mg/L (≈ 28.2 µM) in each case. In addition, the MIC in the assay with Escherichia coli and against Staphylococcus aureus was 12.5 mg/L (≈ 28.2 µM) each time. The inhibition in vivo at 10 mg/kg in the assay on Rattus norvegicus is 33.7%.
Turning to `COc1ccc(N2CCN(Cn3nc(C(C)c4ccc(CC(C)C)cc4)oc3=S)CC2)cc1` (stereo unspecified), the minimum inhibitory concentration (MIC) was determined as 6.25 mg/L (≈ 13.4 µM) with Pseudomonas aeruginosa; 6.25 mg/L (≈ 13.4 µM) against Klebsiella pneumoniae; 12.5 mg/L (≈ 26.8 µM) in the assay with Aspergillus flavus; 12.5 mg/L (≈ 26.8 µM) with Aspergillus fumigatus; 12.5 mg/L (≈ 26.8 µM) against Talaromyces marneffei; 12.5 mg/L (≈ 26.8 µM) in assay [1]. Further, the MIC in the assay with Escherichia coli and against Staphylococcus aureus was 6.25 mg/L (≈ 13.4 µM) in each case. Also, the inhibition in vivo at 10 mg/kg with Rattus norvegicus came out at 42.6%.
`CC(C)Cc1ccc(C(C)c2nn(CN3CCN(c4ccc(F)cc4)CC3)c(=S)o2)cc1` (stereo unspecified): the MIC (against Pseudomonas aeruginosa; against Klebsiella pneumoniae; with Aspergillus flavus; in the assay with Aspergillus fumigatus; in the assay with Talaromyces marneffei; in assay [1]) was 6.25 mg/L (≈ 13.7 µM) throughout. The minimum inhibitory concentration (MIC) against Escherichia coli and in the assay with Staphylococcus aureus was 6.25 mg/L (≈ 13.7 µM) in each case. In addition, the inhibition in vivo at 10 mg/kg is 75.4% in the assay with Rattus norvegicus, 32.6% with Mus musculus [2], 45% in the assay with Mus musculus [3] and 57% with Mus musculus [4].
On to `CCOc1ccccc1N1CCN(Cn2nc(C(C)c3ccc(CC(C)C)cc3)oc2=S)CC1` (stereo unspecified), for which the MIC in the assay with Pseudomonas aeruginosa came to 25 mg/L (≈ 52 µM); against Klebsiella pneumoniae it was 25 mg/L (≈ 52 µM); with Aspergillus flavus, 12.5 mg/L (≈ 26 µM); against Aspergillus fumigatus it was 12.5 mg/L (≈ 26 µM); against Talaromyces marneffei it was 12.5 mg/L (≈ 26 µM); in assay [1], 12.5 mg/L (≈ 26 µM). In addition, the MIC with Escherichia coli and in the assay with Staphylococcus aureus was 25 mg/L (≈ 52 µM) each time. The inhibition in vivo at 10 mg/kg in the assay with Rattus norvegicus stood at 44.6%.
Take `CC(C)Cc1ccc(C(C)c2nn(CN3CCN(c4cccc(Cl)c4)CC3)c(=S)o2)cc1` (stereo unspecified): the MIC in the assay with Pseudomonas aeruginosa was 25 mg/L (≈ 53.1 µM); with Klebsiella pneumoniae, 25 mg/L (≈ 53.1 µM); with Aspergillus flavus it was 6.25 mg/L (≈ 13.3 µM); with Aspergillus fumigatus, 6.25 mg/L (≈ 13.3 µM); with Talaromyces marneffei, 6.25 mg/L (≈ 13.3 µM); in assay [1] it was 6.25 mg/L (≈ 13.3 µM). Also, the MIC with Escherichia coli and in the assay on Staphylococcus aureus was 25 mg/L (≈ 53.1 µM) in each case. The inhibition in vivo at 10 mg/kg in the assay with Rattus norvegicus turned out to be 64.3%.
As for `CSc1ccc(Cc2nn(CN3CCOCC3)c(=S)o2)cc1`, the MIC stood at 12.5 mg/L (≈ 37 µM) against Pseudomonas aeruginosa; 12.5 mg/L (≈ 37 µM) in the assay with Klebsiella pneumoniae; 6.25 mg/L (≈ 18.5 µM) with Aspergillus flavus; 6.25 mg/L (≈ 18.5 µM) in the assay on Aspergillus fumigatus; 6.25 mg/L (≈ 18.5 µM) against Talaromyces marneffei; 6.25 mg/L (≈ 18.5 µM) in assay [1]. Further, the minimum inhibitory concentration (MIC) against Escherichia coli and in the assay on Staphylococcus aureus was 12.5 mg/L (≈ 37 µM) in each case. Moreover, the inhibition in vivo at 10 mg/kg in the assay with Rattus norvegicus worked out at 35.2%.
Take `CSc1ccc(Cc2nn(CN3CCN(c4ccc(Cl)cc4)CC3)c(=S)o2)cc1`: the MIC (in the assay with Pseudomonas aeruginosa; in the assay on Klebsiella pneumoniae; in the assay on Aspergillus flavus; against Aspergillus fumigatus; in the assay on Talaromyces marneffei; in assay [1]) was 6.25 mg/L (≈ 14 µM) in each case. In addition, the MIC with Escherichia coli and against Staphylococcus aureus was 6.25 mg/L (≈ 14 µM) throughout. Also, the inhibition in vivo at 10 mg/kg in the assay with Rattus norvegicus is 71.1%.
With `CCOC(=O)C1CCN(Cn2nc(C(C)c3ccc(CC(C)C)cc3)oc2=S)CC1` (stereo unspecified), the minimum inhibitory concentration (MIC) (in the assay with Pseudomonas aeruginosa; in the assay on Klebsiella pneumoniae; with Aspergillus flavus; with Aspergillus fumigatus; against Talaromyces marneffei; in assay [1]) was 12.5 mg/L (≈ 29 µM) in each case. Moreover, the MIC in the assay on Escherichia coli and in the assay on Staphylococcus aureus was 12.5 mg/L (≈ 29 µM) in each case. Besides, the inhibition in vivo at 10 mg/kg was 73.9% in the assay with Rattus norvegicus, 30.6% with Mus musculus [2], 41.8% in the assay on Mus musculus [3] and 55.2% with Mus musculus [4].
As for `CCOc1ccccc1N1CCN(Cn2nc(Cc3ccc(SC)cc3)oc2=S)CC1`, the MIC (in the assay with Pseudomonas aeruginosa; with Klebsiella pneumoniae; against Aspergillus flavus; against Aspergillus fumigatus; against Talaromyces marneffei; in assay [1]) was 12.5 mg/L (≈ 27.4 µM) each time. Besides, the MIC against Escherichia coli and against Staphylococcus aureus was 12.5 mg/L (≈ 27.4 µM) in each case. The inhibition in vivo at 10 mg/kg in the assay on Rattus norvegicus was 42.5%.
Turning to `CCOC(=O)C1CCN(Cn2nc(Cc3ccc(SC)cc3)oc2=S)CC1`, the MIC (with Pseudomonas aeruginosa; in the assay on Klebsiella pneumoniae; in the assay with Aspergillus flavus; against Aspergillus fumigatus; in the assay on Talaromyces marneffei; in assay [1]) was 12.5 mg/L (≈ 30.7 µM) in each case. Besides, the MIC against Escherichia coli and against Staphylococcus aureus was 12.5 mg/L (≈ 30.7 µM) each time. In addition, the inhibition in vivo at 10 mg/kg with Rattus norvegicus came to 57.4%.
Regarding `O=C(O)Cc1ccccc1Nc1c(Cl)cccc1Cl` [DICLOFENAC SODIUM], the inhibition in vivo at 10 mg/kg came out at 73.7% with Rattus norvegicus, 29.2% in the assay with Mus musculus [2], 40.8% in the assay on Mus musculus [3] and 53.6% in the assay with Mus musculus [4].
